According to ChEMBL document CHEMBL5338740, “Atropo/Tropo Flexibility: A Tool for Design and Synthesis of Self-Adaptable Inhibitors of Carbonic Anhydrases and Their Antiproliferative Effect” (J Med Chem, 2023):
pIC50, pKi: −log10 of the molar value. The source made the active and inactive calls. No cut-off for these calls is given here.

Assays:
Carbonic anhydrase 12 = Carbonic anhydrase 12 (Homo sapiens, UniProt O43570); experiment: Inhibition of recombinant human CA XII (30 to 291 residues) expressed in escherichia coli BL21 assessed as inhibition constant preincubated for 15 mins by phenol red dye based stopped-flow CO2 hydration assay
Carbonic anhydrase 1 = Carbonic anhydrase 1 (Homo sapiens, UniProt P00915); experiment: Inhibition of recombinant human CA1 assessed as inhibition constant preincubated for 15 mins by phenol red dye based stopped-flow CO2 hydration assay
Carbonic anhydrase 2 = Carbonic anhydrase 2 (Homo sapiens, UniProt P00918); experiment: Inhibition of recombinant human […] assessed as inhibition constant preincubated for 15 mins by phenol red dye based stopped-flow CO2 hydration assay
Carbonic anhydrase 9 = Carbonic anhydrase 9 (Homo sapiens, UniProt Q16790); experiment: Inhibition of recombinant human […] assessed as inhibition constant preincubated for 15 mins by phenol red dye based stopped-flow CO2 hydration assay
A549 = experiment: Cytotoxicity against human A549 cells assessed as inhibition of cell viability for 48 hrs by MTT assay; assay type: functional, cell-based; conditions: A549, 48 h
MCF7 = experiment: Cytotoxicity against human MCF7 cells assessed as inhibition of cell viability for 48 hrs by MTT assay; assay type: functional, cell-based; conditions: for pIC50: MCF7, 48 h
HeLa = experiment: Cytotoxicity against human HeLa cells assessed as inhibition of cell viability for 48 hrs by MTT assay; assay type: functional, cell-based

Chain of Carbonic anhydrase 1 (P00915 whole entry): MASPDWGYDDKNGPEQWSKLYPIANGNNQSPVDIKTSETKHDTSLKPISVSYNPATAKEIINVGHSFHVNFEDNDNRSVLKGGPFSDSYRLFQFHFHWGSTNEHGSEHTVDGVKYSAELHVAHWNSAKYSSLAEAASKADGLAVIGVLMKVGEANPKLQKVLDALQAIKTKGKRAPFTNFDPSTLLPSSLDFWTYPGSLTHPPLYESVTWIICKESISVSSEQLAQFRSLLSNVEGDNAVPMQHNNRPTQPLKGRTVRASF
Chain of Carbonic anhydrase 12 (O43570 whole entry, the tested form may be a part): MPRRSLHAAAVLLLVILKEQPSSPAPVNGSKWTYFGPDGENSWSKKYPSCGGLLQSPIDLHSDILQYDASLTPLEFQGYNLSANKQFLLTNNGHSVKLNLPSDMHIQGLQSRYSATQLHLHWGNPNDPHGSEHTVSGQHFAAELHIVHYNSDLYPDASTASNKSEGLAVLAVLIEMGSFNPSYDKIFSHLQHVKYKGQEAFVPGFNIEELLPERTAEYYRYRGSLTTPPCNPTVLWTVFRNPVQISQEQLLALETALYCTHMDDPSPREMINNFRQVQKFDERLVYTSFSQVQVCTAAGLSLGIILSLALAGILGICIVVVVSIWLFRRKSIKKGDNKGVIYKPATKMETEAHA

`NS(=O)(=O)c1ccc(-c2ccc(-c3cccc4ncccc34)cc2)s1` was tested, and the pKi (Carbonic anhydrase 12) was 7.14, the pKi (Carbonic anhydrase 1) was 7.07 and the pKi (Carbonic anhydrase 2) was 7.95. The pKi (Carbonic anhydrase 9) was 7.42.
Compound `Cc1cc(-c2ccc(S(N)(=O)=O)cc2)ccc1-c1cccc2ccccc12` has a pKi (Carbonic anhydrase 12) of 6.09, a pKi (Carbonic anhydrase 1) of 7.26 and a pKi (Carbonic anhydrase 2) of 7.52. It also gave a pKi (Carbonic anhydrase 9) of 7.12.
`Cc1cc(-c2ccc(S(N)(=O)=O)s2)ccc1-c1cccc2ccccc12` was tested, and the pKi (Carbonic anhydrase 12) was 6.67, the pKi (Carbonic anhydrase 1) was 7.17 and the pKi (Carbonic anhydrase 2) was 7.46. The pKi (Carbonic anhydrase 9) was 7.53, the pIC50 (A549) was 3.99 and the pIC50 (MCF7) was less than 3.30. For the same compound, the pIC50 (HeLa) was less than 3.30.
For `Cc1cc(-c2ccc(S(N)(=O)=O)s2)ccc1-c1cccc2ncccc12`, the pKi (Carbonic anhydrase 12) was 7.10, the pKi (Carbonic anhydrase 1) was 7.14 and the pKi (Carbonic anhydrase 2) was 8.24. It also gave a pKi (Carbonic anhydrase 9) of 7.57, a pIC50 (A549) of 4.66 and a pIC50 (MCF7) of 4.49. It also gave a pIC50 (HeLa) of 4.51.
With `Cc1cc(-c2ccc(S(N)(=O)=O)s2)cnc1-c1cccc2ncccc12` the pKi (Carbonic anhydrase 12) was 7.06, the pKi (Carbonic anhydrase 1) was 7.23 and the pKi (Carbonic anhydrase 2) was 8.49. The pKi (Carbonic anhydrase 9) was 7.53, the pIC50 (A549) was 4.17 and the pIC50 (MCF7) was 4.15. For the same compound, the pIC50 (HeLa) was 4.29.
`Cc1cc(-c2ccc(S(N)(=O)=O)s2)cnc1-c1cccc2ccccc12` was tested, and the pKi (Carbonic anhydrase 12) was 6.67, the pKi (Carbonic anhydrase 1) was 7.04 and the pKi (Carbonic anhydrase 2) was 8.14. It also gave a pKi (Carbonic anhydrase 9) of 7.53.
`Cc1cc(-c2cccc(S(N)(=O)=O)c2)ccc1-c1cccc2ccccc12` showed a pKi (Carbonic anhydrase 12) of 6.41, a pKi (Carbonic anhydrase 1) of 6.17 and a pKi (Carbonic anhydrase 2) of 7.00. For the same compound, the pKi (Carbonic anhydrase 9) was 7.06.
`NS(=O)(=O)c1ccc(-c2ccc(-c3cccc4ccccc34)cc2)cc1` gave a pKi (Carbonic anhydrase 12) of 6.30, a pKi (Carbonic anhydrase 1) of 6.95 and a pKi (Carbonic anhydrase 2) of 7.24. For the same compound, the pKi (Carbonic anhydrase 9) was 7.07.
Work on `Cc1cc(-c2ccc(S(N)(=O)=O)cc2)cnc1-c1ccnc2ccccc12` yielded a pKi (Carbonic anhydrase 12) of 6.61, a pKi (Carbonic anhydrase 1) of 7.31 and a pKi (Carbonic anhydrase 2) of 8.31. The pKi (Carbonic anhydrase 9) was 6.78.
Compound `NS(=O)(=O)c1ccc(-c2ccc(-c3cccc4ncccc34)cc2)cc1` has a pKi (Carbonic anhydrase 12) of 6.26, a pKi (Carbonic anhydrase 1) of 7.07 and a pKi (Carbonic anhydrase 2) of 7.48. The pKi (Carbonic anhydrase 9) was 7.14.
`Cc1cc(-c2ccc(S(N)(=O)=O)s2)ccc1-c1ccnc2ccccc12` showed a pKi (Carbonic anhydrase 12) of 7.38, a pKi (Carbonic anhydrase 1) of 7.45 and a pKi (Carbonic anhydrase 2) of 8.26. The pKi (Carbonic anhydrase 9) was 6.97.
Work on `Cc1cc(-c2cccc(S(N)(=O)=O)c2)cnc1-c1ccnc2ccccc12` yielded a pKi (Carbonic anhydrase 12) of 6.35, a pKi (Carbonic anhydrase 1) of 6.32 and a pKi (Carbonic anhydrase 2) of 7.05. It also gave a pKi (Carbonic anhydrase 9) of 6.67.
Compound `NS(=O)(=O)c1cccc(-c2ccc(-c3cccc4ccccc34)cc2)c1` has a pKi (Carbonic anhydrase 12) of 6.25, a pKi (Carbonic anhydrase 1) of 6.16 and a pKi (Carbonic anhydrase 2) of 6.84. For the same compound, the pKi (Carbonic anhydrase 9) was 6.48.
With `NS(=O)(=O)c1ccc(-c2ccc(-c3ccnc4ccccc34)cn2)s1` the pKi (Carbonic anhydrase 12) was 7.29, the pKi (Carbonic anhydrase 1) was 7.14 and the pKi (Carbonic anhydrase 2) was 8.68. The pKi (Carbonic anhydrase 9) was 7.21, the pIC50 (A549) was less than 3.30 and the Activity (MCF7) was “inactive”. The Activity (HeLa) was “inactive”.
`Cc1cc(-c2ccc(S(N)(=O)=O)s2)cnc1-c1ccnc2ccccc12` showed a pKi (Carbonic anhydrase 12) of 6.80, a pKi (Carbonic anhydrase 1) of 7.30 and a pKi (Carbonic anhydrase 2) of 8.43. It also gave a pKi (Carbonic anhydrase 9) of 7.17, a pIC50 (A549) of 4.36 and a pIC50 (MCF7) of 4.78. It also gave a pIC50 (HeLa) of 3.98.
For `NS(=O)(=O)c1ccc(-c2ccc(-c3cccc4ccccc34)cc2)s1`, the pKi (Carbonic anhydrase 12) was 6.25, the pKi (Carbonic anhydrase 1) was 7.03 and the pKi (Carbonic anhydrase 2) was 7.54. It also gave a pKi (Carbonic anhydrase 9) of 6.32, a pIC50 (A549) of 4.52 and a pIC50 (MCF7) of 4.16. It also gave a pIC50 (HeLa) of 4.62.
